Results on 16 compounds are retold here after publication PMC8815882, “Screening the pandemic response box identified benzimidazole carbamates, Olorofim and ravuconazole as promising drug candidates for the treatment of eumycetoma” (PLoS Neglected Tropical Diseases, 2022).

“And” between values parts separate entries of the source, which are not always exact repeats. Equal values may be shown once. Read-outs that look alike come from different tables or passages of the source.

For this assay, the system named is M. mycetomatis genome strain MM55. The assay can be described thus: CLSI M38-A2 based in vitro susceptibility screening (XTT or resazurin), growth at fixed concentration. Type of assay: cell-based, Madurella mycetomatis. The note with it: for activity at 25 µM / activity at 100 µM / Percent fungal survival at 100 µM: Madurella mycetomatis; for Percent fungal survival at 100 µM: read-out: Percentage survival at 100um, 100 uM A (second replicate column).

[1] abbreviates: 25 uM, mean of replicates, MM55, read-out: Percentage survival at 25um, 25 uM mean.
Where [2] appears, read: 25 uM, replicate A, MM55, read-out: Percentage survival at 25um, 25 um A.
Setting [3] is: 25 uM, replicate B, MM55, read-out: Percentage survival at 25um, 25 uM B.
The mark [4] stands for this setting: 25 uM, replicate C, MM55, read-out: Percentage survival at 25um, 25 uM C.
The mark [5] stands for this setting: 100 uM, mean of replicates, MM55, read-out: Percentage survival at 100um, 100 uM mean.
Where [6] appears, read: 100 uM, replicate 1, MM55, read-out: Percentage survival at 100um, 100 uM A.
Setting [7] is: 100 uM, replicate 2, MM55, read-out: Percentage survival at 100um, 100 uM A.
[8] abbreviates: 100 uM, replicate 3, MM55, read-out: Percentage survival at 100um, 100 uM A.
[9] abbreviates: 25 uM, mean of three replicates, read-out: Percentage survival at 25um, 25 uM mean.
[10] abbreviates: 25 uM, replicate A, read-out: Percentage survival at 25um, 25 um A.
[11] abbreviates: 25 uM, replicate B, read-out: Percentage survival at 25um, 25 uM B.
The mark [12] stands for this setting: 25 uM, replicate C, read-out: Percentage survival at 25um, 25 uM C.
[13] abbreviates: 100 uM, mean of three replicates, read-out: Percentage survival at 100um, 100 uM mean.
The mark [14] stands for this setting: 100 uM, replicate 1, read-out: Percentage survival at 100um, 100 uM A (first replicate column).
The mark [15] stands for this setting: 100 uM, replicate 3, read-out: Percentage survival at 100um, 100 uM A (third replicate column).
Setting [16] is: 25 uM, mean of replicates, read-out: Percentage survival at 25um, 25 uM mean.
Setting [17] is: 100 uM, mean of replicates, read-out: Percentage survival at 100um, 100 uM mean.
Setting [18] is: 100 uM, replicate 1, read-out: Percentage survival at 100um, 100 uM A.
Setting [19] is: 100 uM, replicate 2, read-out: Percentage survival at 100um, 100 uM A.
The mark [20] stands for this setting: 100 uM, replicate 3, read-out: Percentage survival at 100um, 100 uM A.
The mark [21] stands for this setting: 25 uM, mean, read-out: Percentage survival at 25um, 25 uM mean.
Where [22] appears, read: 100 uM, mean, read-out: Percentage survival at 100um, 100 uM mean.
The mark [23] stands for this setting: 100 uM, replicate (first column), read-out: Percentage survival at 100um, 100 uM A.
The mark [24] stands for this setting: 100 uM, replicate (second column), read-out: Percentage survival at 100um, 100 uM A.
Setting [25] is: 100 uM, replicate (third column), read-out: Percentage survival at 100um, 100 uM A.

In the case of `CNC(=O)C1O[C@@H](n2cnc3c(NCc4cccc(I)c4)nc(Cl)nc32)[C@H](O)[C@@H]1O` (stereo partly shown) [MMV1593514], the activity at 25 µM by setting is: under setting [1], 94.9%; under setting [2], 85.8%; under setting [3], 83.7%; under setting [4], 115%. Moreover, the activity at 100 µM runs as follows: under setting [5], 80.9%; under setting [6], 74.5%; under setting [7], 99.3%; under setting [8], 68.9%.

Consider `CCOC(=O)/C=C/[C@H](C[C@@H]1CCNC1=O)NC(=O)[C@@H](CC(=O)[C@@H](NC(=O)c1cc(C)on1)C(C)C)Cc1ccc(F)cc1` [MMV1580491], for which the activity at 25 µM reads like this: under setting [9], 96.1%; under setting [10], 96.2%; under setting [11], 112%; under setting [12], 79.9%. For the same compound, the activity at 100 µM was determined as 93.9% under setting [13], 99.7% under setting [14] and 95.4% under setting [15]. Further, where the note is “100 uM, replicate 2”, the Percent fungal survival at 100 µM came out at 86.7%.

With `O=C(O)CCNC(=O)c1ccccc1` [MMV002224], the activity at 25 µM is, setting by setting: under setting [16], 93.9%; under setting [10], 90.2%; under setting [11], 96.2%; under setting [12], 95.4%. In addition, the activity at 100 µM was determined as 89.7% under setting [17], 96% under setting [18], 83.6% under setting [19] and 89.5% under setting [20].

On to `COc1cc(NC(=O)CN2C(=O)NC(c3ccccc3)(c3ccccc3)C2=O)cc(OC)c1` [MMV1578572], for which the activity at 25 µM is 72% under setting [21], 95.2% under setting [10], 47.1% under setting [11] and 73.6% under setting [12]. The activity at 100 µM by setting is: under setting [22], 79.3%; under setting [23], 83.4%; under setting [24], 65.2%; under setting [25], 89.3%.

Regarding `COc1ccccc1NC(=O)c1ccccc1Sc1ccc([N+](=O)[O-])cc1` [MMV1580484], the activity at 25 µM turned out to be 65.2% under setting [9], 65.9% under setting [10], 69.7% under setting [11] and 60.2% under setting [12]. Moreover, the activity at 100 µM is, setting by setting: (100 uM, first replicate column, read-out: Percentage survival at 100um, 100 uM A) 60.9%; under setting [13], 60.4%; (100 uM, second replicate column, read-out: Percentage survival at 100um, 100 uM A) 56%; (100 uM, third replicate column, read-out: Percentage survival at 100um, 100 uM A) 64.4%.

Consider `Cc1ncc([N+](=O)[O-])n1CC(O)CN1CCOCC1` (stereo not shown) [MMV1613562], for which the activity at 25 µM under setting [9] was 110%, the activity at 25 µM under setting [10] worked out at 99.4%, the activity at 25 µM under setting [11] came out at 137% and the activity at 25 µM under setting [12] was found to be 94%. The activity at 100 µM by setting is: under setting [13], 94.6%; under setting [14], 93.7%; under setting [15], 104%. In addition, where the note is “100 uM, replicate 2”, the Percent fungal survival at 100 µM amounted to 86.5%.

Take `O=C(NCc1ccc2c3c(cccc13)C(=O)N2)c1cccs1` [MMV1341773]: the activity at 25 µM under setting [16] was determined as 75.4%, the activity at 25 µM under setting [10] was found to be 79.8%, the activity at 25 µM under setting [11] came to 76.7% and the activity at 25 µM under setting [12] worked out at 69.6%. Besides, the activity at 100 µM under setting [17] stood at 76.2%, the activity at 100 µM under setting [18] was determined as 75.7%, the activity at 100 µM under setting [19] was 74% and the activity at 100 µM under setting [20] came to 78.8%.

Consider `Nc1nc(-c2ccccc2)nc2[nH]nc(Nc3ccc(C(F)(F)F)cc3)c12` [MMV1633968], for which the activity at 25 µM is 111% under setting [1], 147% under setting [2], 105% under setting [3] and 80.3% under setting [4]. In addition, the activity at 100 µM was determined as 86.9% under setting [5], 89.5% under setting [6], 94% under setting [7] and 77.2% under setting [8].

On to `O=C1NC(=S)N/C1=C\c1cc(Br)cc(Br)c1O` [MMV1578569], for which the activity at 25 µM was 85.5% under setting [16], 79.8% under setting [10], 98.7% under setting [11] and 77.8% under setting [12]. Also, the activity at 100 µM under setting [17] worked out at 102%, the activity at 100 µM under setting [18] is 103%, the activity at 100 µM under setting [19] was 104% and the activity at 100 µM under setting [20] was found to be 97.5%.

As to `c1ccc(-c2nnc3c4ccccc4c(N4CCNCC4)nn23)cc1` [MMV1581551], the activity at 25 µM by setting is: under setting [21], 84.6%; under setting [10], 93.2%; under setting [11], 85.9%; under setting [12], 74.8%. Besides, the activity at 100 µM worked out at 37% under setting [22], 10.9% under setting [23], 52.3% under setting [24] and 47.9% under setting [25].

For the compound `COc1ccc(SCC(=O)N2c3ccccc3Sc3ccccc32)cc1` [MMV1578573], the activity at 25 µM stood at 55.5% under setting [16], 59.3% under setting [10], 58.5% under setting [11] and 48.8% under setting [12]. For the same compound, the activity at 100 µM was 68.5% under setting [17], 43.6% under setting [18], 62.3% under setting [19] and 99.7% under setting [20].

In the case of `COc1ccc(C[C@@H](C)[C@@H](C)Cc2ccc(OC)c(OC)c2)cc1OC` [MMV1581036], the activity at 25 µM under setting [1] amounted to 68.5%, the activity at 25 µM under setting [2] worked out at 72.1%, the activity at 25 µM under setting [3] was found to be 71.5% and the activity at 25 µM under setting [4] stood at 61.9%. The activity at 100 µM reads like this: under setting [5], 52.6%; under setting [6], 50.8%; under setting [7], 58.7%; under setting [8], 48.3%.

On to `CC[C@H](CO)Nc1nc(NCc2ccccc2)c2ncn(C(C)C)c2n1` [MMV003820], for which the “Percentage survival at 100um, 100 uM A” value is 50.7482% and 60.4702%. Where the note is “read-out: Percentage survival at 25um, 25 uM B”, the activity at 25 µM came to 62.4%. Also, the activity at 25 µM (read-out: Percentage survival at 25um, 25 uM C) amounted to 43.5%. Moreover, the activity at 25 µM (read-out: Percentage survival at 25um, 25 uM mean) came out at 63.8%. For the same compound, the activity at 25 µM (read-out: Percentage survival at 25um, 25 um A) was 85.5%. Besides, the activity at 100 µM (read-out: Percentage survival at 100um, 100 uM A) came out at 48.1%. Also, for the setting “read-out: Percentage survival at 100um, 100 uM mean”, the activity at 100 µM came out at 53.1%.

As for `CCCCSc1nc(N)c2[nH]c(=O)c(=O)n(Cc3ccccc3)c2n1` [MMV1579783], the activity at 25 µM is, setting by setting: under setting [21], 74.7%; under setting [10], 95.5%; under setting [11], 58.6%; under setting [12], 70%. Moreover, the activity at 100 µM runs as follows: under setting [22], 54.9%; under setting [23], 84%; under setting [24], 5.11%; under setting [25], 75.6%.

`O=C(O)CSc1cc(NS(=O)(=O)c2cccc3cccnc23)c2ccccc2c1O` [MMV218827]: the activity at 25 µM reads like this: under setting [1], 91.4%; under setting [2], 90.9%; under setting [3], 95.2%; under setting [4], 88.2%. Also, the activity at 100 µM runs as follows: under setting [5], 89.8%; under setting [6], 82.4%; under setting [7], 84.7%; under setting [8], 102%.

Take `COc1ccc(CNC(=O)C(NS(=O)(=O)c2ccc3nc(C)sc3c2)C(C)C)cc1` (stereo not shown) [MMV303733]: the activity at 25 µM amounted to 91.8% under setting [9], 74.6% under setting [10], 73.6% under setting [11] and 127% under setting [12]. For the same compound, the activity at 100 µM is 75.7% under setting [13], 82.2% under setting [14] and 67.5% under setting [15]. Further, for the setting “100 uM, replicate 2”, the Percent fungal survival at 100 µM amounted to 77.4%.
